Test results taken from patent publication US6710168B1, “Glycopeptide antibiotics, combinatorial libraries of glycopeptide antibiotics and methods of producing same” (The Trustees of the University of Princeton, priority 1999, dated 2004).
Converted amounts (≈) assume the structure as drawn. Read-outs that look alike come from different tables or passages of the source.

What was measured:
Format in all cases: cell-based
[1] = system: gentamicin, streptmycin, vancomycin resistant Enterococcus faecalis (ATCC 51299); test: microbe, parasite or virus in culture; conditions: for MIC: Enterococcus faecalis, ATCC51299, read-out: MIC VREF; for MIC VREF: Enterococcus faecalis ATCC51299, vancomycin resistance
Outline: (§1)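 Broth microdilution in cation-adjusted Mueller-Hinton broth, 12-step two-fold series from 5 μg/mL to […], mixed 1:1 with 10^6 CFU/mL cell suspension and incubated 24 h at 37 °C. MTT (1 mg/mL solution) is then added for 30 min (S. aureus, MRSA) or 2 h (E. faecalis strains). MIC = lowest concentration inhibiting growth.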

[2] = system: Enterococcus faecium CL5137, VanA; test: MIC susceptibility test; conditions: for MIC: read-out: MIC CL5137
[3] = system: Methicillin resistant Staphylococcus aureus (ATCC 33591); test: MIC susceptibility test, microdilution with MTT readout; conditions: for MIC: ATCC 3359 / ATCC 33591 / MRSA, read-out: MIC MRSA
Outline: as §1

[4] = system: Enterococcus faecalis (ATCC 29212); test: as above
Outline: as §1

[5] = system: Bacillus cereus (ATCC 11778); test: as above; conditions: for MIC: Bacillus cereus, ATCC11778, read-out: MIC BC; for MIC BC: Bacillus ceres ATCC11778
Outline: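 Bacillus cereus ATCC® 11778 susceptibility was measured by broth microdilution in 96-well microplates using Cation Adjusted Mueller-Hinton broth. Samples were diluted two-fold from 5 μg/mL over 12 steps. Each well combined 100 μL of cell suspension (10^6 CFU/mL) with 100 μL of antibiotic solution and was incubated at 37° C. for 24 h. Then 50 μL of MTT (1 mg/mL) was added for 30 min, and MIC (μg/mL) was read as the lowest concentration inhibiting growth.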

[6] = system: Staphylococcus aureus (ATCC 29213); test: as above
Outline: as §1

[7] = system: Enterococcus faecalis CL5244, VanB; test: MIC susceptibility test; conditions: for MIC: read-out: MIC CL5244
Protocol: Evaluation of vancomycin analogs is performed using in vitro susceptibility tests and a time-kill assay. [NCCL Standard, 1993] In susceptibility tests, five strains of bacteria, two of the most important: Staphylococcus aureus and Enterococcus faecalis (both susceptible and resistant strains), and Bacillus cereus are chosen and bacteria viability remaining in each well is evaluated using a colorimetric assay based on the tetrazolium salt 3-(4,5-dimethyl-2-thiazolyl)-2,5-diphenyl-2H tetrazolium bromide (MTT) and minimum inhibitory concentration (MIC) values are determined as μg/mL. [Mosmann, T. (1983); Damour, O., et al. (1992); Mikami, Y., et al. (1994)] This assay gives susceptibility information quickly, efficiently, and clearly.
MICs are determined by the microdilution method using 96-well microplates. Samples are suspended with Cation Adjusted (20 to 25 mg of Ca^2+/mL and 10 to […] of Mg^2+) Mueller-Hinton broth (Difco Laboratories, Detroit, Mich.) and are two-fold diluted from 5 μg/mL to […] on microplates (12 step dilution). To each well, which contained 100 μL of cell suspension (10^6 CFU/mL), 100 μL of antibiotic solution is added and the plates are incubated at 37° C. for 24 h. 50 μL of MTT solution (1 mg/mL) is added to each well, then the plates are incubated under the same conditions (incubation time; 30 min for Bacillus cereus, Staphylococcus aureus, and Methicillin resistant Staphylococcus aureus; 2 hours for Enterococcus faecalis and Gentamicin, Streptmycin, Vancomycin Enterococcus faecalis). MTT is a yellow tetrazolium salt that is reduced by mitochondrial enzymes in viable cells to an insoluble blue formazan product. MIC values are evaluated by observing the lowest drug concentration to inhibit bacteria growth.

[8] = Enterococcus faecium CL5137, VanA
[9] = Staphylococcus aureus ATCC3359, Methicillin resistance
[10] = Enterococcus faecalis ATCC29212, read-out: MIC EF
[11] = Staphylococcus aureus ATCC29213, read-out: MIC SA
[12] = Enterococcus faecalis CL5244, VanB
[13] = Enterococcus faecalis ATCC29212
[14] = Staphylococcus aureus ATCC29213

| SMILES | MIC [1] [µg/mL] | MIC ([2]; Enterococcus faecium) [µg/mL] | MIC ([3]; Staphylococcus aureus) [µg/mL] | MIC ([4]; Enterococcus faecalis, ATCC29212, read-out: MIC EF) [µg/mL] | MIC [5] [µg/mL] | MIC ([6]; Staphylococcus aureus, ATCC29213, read-out: MIC SA) [µg/mL] | MIC ([7]; Enterococcus faecalis) [µg/mL] | MIC [2, 8] [µg/mL] | MIC [3, 9] [µg/mL] | MIC [4, 10] [µg/mL] | MIC [6, 11] [µg/mL] | MIC [7, 12] [µg/mL] | MIC VREF [1] [µg/mL] | MIC CL5137 [2, 8] | MIC MRSA [3, 9] [µg/mL] | MIC EF [4, 13] [µg/mL] | MIC BC [5] [µg/mL] | MIC SA [6, 14] [µg/mL] | MIC CL5244 [7, 12] [µg/mL] |
| --- | --- | --- | --- | --- | --- | --- | --- | --- | --- | --- | --- | --- | --- | --- | --- | --- | --- | --- | --- |
| CN[C@H](CC(C)C)C(=O)N[C@H]1C(=O)N[C@@H](CC(N)=O)C(=O)N[C@H]2C(=O)N[C@H]3C(=O)N[C@H](C(=O)N[C@H](C(=O)O)c4cc(O)cc(O)c4-c4cc3ccc4O)[C@H](O)c3ccc(c(Cl)c3)Oc3cc2cc(c3OC2OC(CNC(=O)c3cnc4ccccc4n3)C(O)C(O)C2OC2CC(C)(NCc3ccc(-c4ccc(Cl)cc4)cc3)C(O)C(C)O2)Oc2ccc(cc2Cl)[C@H]1O (some centres unmarked) [LII, Glucose-C6-N-2-quinoxaloyl-vancosamine-N-4-(4-chlorophenyl)benzyl Vancomycin] | 0.16 (≈ 0.0886 µM) | 3.2 (≈ 1.77 µM) | 5 (≈ 2.77 µM) | 0.08 (≈ 0.0443 µM) | 1.9 (≈ 1.05 µM) | 5 (≈ 2.77 µM) | 0.2 (≈ 0.111 µM) |  |  |  |  |  |  |  |  |  |  |  |  |
| CN[C@@H](CC(C)C)C(=O)N[C@H]1C(=O)N[C@@H](CC(N)=O)C(=O)N[C@H]2C(=O)NC3C(=O)N[C@H](C(=O)N[C@@H](C(=O)O)c4cc(O)cc(O)c4-c4cc3ccc4O)[C@H](O)c3ccc(c(Cl)c3)Oc3cc2cc(c3OC2OC(CSc3nc(-c4ccccc4)c(-c4ccccc4)o3)C(O)C(O)C2OC2CC(C)(NCc3ccc(-c4ccc(Cl)cc4)cc3)C(O)C(C)O2)Oc2ccc(cc2Cl)[C@H]1O (some centres unmarked) [LXXXVII, N-4-(4-Chlorophenyl)benzylvancosamine-glucose-C6-2-thio-4,5-diphenyloxazole Vancomycin] | 5 (≈ 2.65 µM) |  |  |  | > 5 |  |  | 50 (≈ 26.5 µM) | > 5 | 5 (≈ 2.65 µM) | > 5 | 10 (≈ 5.3 µM) |  |  |  |  |  |  |  |
| CN[C@@H](CC(C)C)C(=O)N[C@H]1C(=O)N[C@@H](CC(N)=O)C(=O)N[C@H]2C(=O)NC3C(=O)N[C@H](C(=O)N[C@@H](C(=O)O)c4cc(O)cc(O)c4-c4cc3ccc4O)[C@H](O)c3ccc(c(Cl)c3)Oc3cc2cc(c3OC2OC(CSc3nnnn3C)C(O)C(O)C2OC2CC(C)(N)C(O)C(C)O2)Oc2ccc(cc2Cl)[C@H]1O (some centres unmarked) [LVIII, Glucose-C6-5-thio-1-methyl-tetrazole Vancomycin] | 5 (≈ 3.23 µM) |  |  |  | 1.3 (≈ 0.84 µM) |  |  | > 50 | 2.5 (≈ 1.62 µM) | 2.5 (≈ 1.62 µM) | 1.9 (≈ 1.23 µM) | 50 (≈ 32.3 µM) |  |  |  |  |  |  |  |
| CN[C@@H](CC(C)C)C(=O)N[C@H]1C(=O)N[C@@H](CC(N)=O)C(=O)N[C@H]2C(=O)NC3C(=O)N[C@H](C(=O)N[C@@H](C(=O)O)c4cc(O)cc(O)c4-c4cc3ccc4O)[C@H](O)c3ccc(c(Cl)c3)Oc3cc2cc(c3OC2OC(CSc3nnc(NN)n3N)C(O)C(O)C2OC2CC(C)(N)C(O)C(C)O2)Oc2ccc(cc2Cl)[C@H]1O (some centres unmarked) [LXXVII, Glucose-C6-5-thio-4-amino-3-hydrazino-1,2,4-triazole Vancomycin] | 1.3 (≈ 0.824 µM) |  |  |  | 0.63 (≈ 0.399 µM) |  |  | 63 (≈ 39.9 µM) | 1.3 (≈ 0.824 µM) | 0.63 (≈ 0.399 µM) | 1.3 (≈ 0.824 µM) | 3.2 (≈ 2.03 µM) |  |  |  |  |  |  |  |
| CN[C@@H](CC(C)C)C(=O)N[C@H]1C(=O)N[C@@H](CC(N)=O)C(=O)N[C@H]2C(=O)NC3C(=O)N[C@H](C(=O)N[C@@H](C(=O)O)c4cc(O)cc(O)c4-c4cc3ccc4O)[C@H](O)c3ccc(c(Cl)c3)Oc3cc2cc(c3OC2OC(CSc3nnc(N)s3)C(O)C(O)C2OC2CC(C)(N)C(O)C(C)O2)Oc2ccc(cc2Cl)[C@H]1O (some centres unmarked) [LXXVI, Glucose-C6-2-thio-5-amino-1,3,4-thiadiazole Vancomycin] | > 5 |  |  |  | 0.63 (≈ 0.403 µM) |  |  | > 50 | 0.63 (≈ 0.403 µM) | 1.3 (≈ 0.831 µM) | 0.63 (≈ 0.403 µM) | 19 (≈ 12.1 µM) |  |  |  |  |  |  |  |
| CN[C@@H](CC(C)C)C(=O)N[C@H]1C(=O)N[C@@H](CC(N)=O)C(=O)N[C@H]2C(=O)NC3C(=O)N[C@H](C(=O)N[C@@H](C(=O)O)c4cc(O)cc(O)c4-c4cc3ccc4O)[C@H](O)c3ccc(c(Cl)c3)Oc3cc2cc(c3OC2OC(CSc3nc(C)cc(O)n3)C(O)C(O)C2OC2CC(C)(NCc3ccc(-c4ccc(Cl)cc4)cc3)C(O)C(C)O2)Oc2ccc(cc2Cl)[C@H]1O (some centres unmarked) [LXXXV, N-4-(4-Chlorophenyl)benzylvancosamine-glucose-C6-2-thio-4-hydroxy-6-methylpyrimidine Vancomycin] | 0.32 (≈ 0.18 µM) |  |  |  | 1.3 (≈ 0.733 µM) |  |  | 6.3 (≈ 3.55 µM) | 1.3 (≈ 0.733 µM) | 0.32 (≈ 0.18 µM) | 1.9 (≈ 1.07 µM) | 0.4 (≈ 0.225 µM) |  |  |  |  |  |  |  |
| CNC(CC(C)C)C(=O)NC1C(=O)NC(CC(N)=O)C(=O)NC2C(=O)NC3C(=O)NC(C(=O)NC(C(=O)O)c4cc(O)cc(O)c4-c4cc3ccc4O)C(O)c3ccc(c(Cl)c3)Oc3cc2cc(c3OC2OC(COS(=O)(=O)c3c(C)cc(C)cc3C)C(O)C(O)C2OC2CC(C)(N)C(O)C(C)O2)Oc2ccc(cc2Cl)C1O (centres unmarked) [XLI, Glucose-C6-mesitylenesulfonyl Vancomycin] |  |  |  |  |  |  |  |  |  |  |  |  | 1.3 (≈ 0.797 µM) | 50< μg/mL | 1.3 (≈ 0.797 µM) | 1.3 (≈ 0.797 µM) | 1.3 (≈ 0.797 µM) | 0.63 (≈ 0.386 µM) | 6.3 (≈ 3.86 µM) |
| CN[C@@H](CC(C)C)C(=O)N[C@H]1C(=O)N[C@@H](CC(N)=O)C(=O)N[C@H]2C(=O)NC3C(=O)N[C@H](C(=O)N[C@@H](C(=O)O)c4cc(O)cc(O)c4-c4cc3ccc4O)[C@H](O)c3ccc(c(Cl)c3)Oc3cc2cc(c3OC2OC(CSc3nnnn3-c3ccc(O)cc3)C(O)C(O)C2OC2CC(C)(N)C(O)C(C)O2)Oc2ccc(cc2Cl)[C@H]1O (some centres unmarked) [LXVIII, Glucose-C6-5-thio-1-(4-hydroxyphenyl)-1H-tetrazole Vancomycin] | > 5 |  |  |  | 1.3 (≈ 0.8 µM) |  |  | > 50 | 2.5 (≈ 1.54 µM) | 2.5 (≈ 1.54 µM) | 2.5 (≈ 1.54 µM) | 13 (≈ 8 µM) |  |  |  |  |  |  |  |
| CN[C@@H](CC(C)C)C(=O)N[C@H]1C(=O)N[C@@H](CC(N)=O)C(=O)N[C@H]2C(=O)NC3C(=O)N[C@H](C(=O)N[C@@H](C(=O)O)c4cc(O)cc(O)c4-c4cc3ccc4O)[C@H](O)c3ccc(c(Cl)c3)Oc3cc2cc(c3OC2OC(CSc3nc4cc(OC)ccc4[nH]3)C(O)C(O)C2OC2CC(C)(N)C(O)C(C)O2)Oc2ccc(cc2Cl)[C@H]1O (some centres unmarked) [LXV, Glucose-C6-2-thio-5-methoxybenzimidazole Vancomycin] | 2.5 (≈ 1.55 µM) |  |  |  | 0.63 (≈ 0.391 µM) |  |  | > 50 | 2.5 (≈ 1.55 µM) | 0.63 (≈ 0.391 µM) | 1.9 (≈ 1.18 µM) | 13 (≈ 8.07 µM) |  |  |  |  |  |  |  |
| CNC(CC(C)C)C(=O)NC1C(=O)NC(CC(N)=O)C(=O)NC2C(=O)NC3C(=O)NC(C(=O)NC(C(=O)O)c4cc(O)cc(O)c4-c4cc3ccc4O)C(O)c3ccc(c(Cl)c3)Oc3cc2cc(c3OC2OC(CN)C(O)C(O)C2OC2CC(C)(N)C(O)C(C)O2)Oc2ccc(cc2Cl)C1O (centres unmarked) [XLVII, Glucose-C6-amine Vancomycin] |  |  |  |  |  |  |  |  |  |  |  |  | 1 (≈ 0.69 µM) | 50< μg/mL | 0.32 (≈ 0.221 µM) | 1.9 (≈ 1.31 µM) | 1.0 (≈ 0.69 µM) | 0.63 (≈ 0.435 µM) | 25 (≈ 17.3 µM) |
| CN[C@@H](CC(C)C)C(=O)N[C@H]1C(=O)N[C@@H](CC(N)=O)C(=O)N[C@H]2C(=O)NC3C(=O)N[C@H](C(=O)N[C@@H](C(=O)O)c4cc(O)cc(O)c4-c4cc3ccc4O)[C@H](O)c3ccc(c(Cl)c3)Oc3cc2cc(c3OC2OC(CNCc3cc(Cl)ccc3O)C(O)C(O)C2OC2CC(C)(N)C(O)C(C)O2)Oc2ccc(cc2Cl)[C@H]1O (some centres unmarked) [XXXIX, Glucose-C6-5-chloro-2-hydroxy-benzylamine Vancomycin] | > 5 |  |  |  | 1.3 (≈ 0.818 µM) |  |  | > 50 | 1.3 (≈ 0.818 µM) | 2.5 (≈ 1.57 µM) | 1.3 (≈ 0.818 µM) | 25 (≈ 15.7 µM) |  |  |  |  |  |  |  |
